In patent US20220151896A1, “EFFICIENT SUNSCREEN COMPOSITIONS WITH DIETHYLAMINO HYDROXYBENZOYL HEXYL BENZOATE AND ORGANIC PARTICULATE UV FILTER” (BASF SE, priority 2019, published 2022):

How the values were obtained:
[1] = general description of the commercial UV filter; cited from earlier work
[2] = Interfacial tension (polarity index) of emollients, Tensimat Densimat TD2000; assay type: physicochemical; conditions: interfacial tension oil/water
Description: The term “polarity index” refers to non-polar or polar oils. Non-polar oils are mainly based on hydrocarbons and lack an electronegative element, such as oxygen. In contrast, polar oils contain heteroatoms that differ in electronegativity, which results in a dipole moment. However, such oils are still insoluble in water, i.e. hydrophob. The polarity index can be determined by measuring the interfacial tension between the respective oil and water.
Interfacial tension of the respective emollients as listed below was measured using a Tensimat Densimat TD2000.

Question: With `CCCCC(CC)COC(=O)c1ccc(Nc2nc(Nc3ccc(C(=O)NC(C)(C)C)cc3)nc(Nc3ccc(C(=O)OCC(CC)CCCC)cc3)n2)cc1` (centres unmarked) [diethylhexyl-butamidotriazone, 4,4′-[[6-[[4-[[(1,1-dimethylethyl)amino]carbonyl]phenyl]amino]-1,3,5-triazin-2,4-diyl]diimino]bis-benzoic acid-bis(2-ethylhexyl)ester] as the compound, how does the absorption maximum [1] read?
Answer: 310 nm

Question: With `O1[SiH2]O[SiH2]O[SiH2]O[SiH2]O[SiH2]1` (centres unmarked) [cyclopentasiloxane] as the compound, how does the polarity index [2] read?
Answer: 32 mN/m
